In US10159256B2, “Organic pruning wound composition” (The Regents of the University of California, priority 2014, dated 2018):

What was measured:
Test in all cases: Micro- and macronutrients tested against trunk disease fungi
Details in all cases: among all micro- and macronutrients tested
P. viticola = system: P. viticola
Excerpt: (§1) However, these products are not registered as organic products, leaving organic growers with no alternatives for controlling trunk diseases.

Pm. Alephilum = system: Pm. Alephilum
Excerpt: as §1

D. seriata = system: D. seriata
Excerpt: as §1

Pa. chlamydospora = system: Pa. chlamydospora
Excerpt: as §1

E. lata = system: E. lata
Excerpt: as §1

[B] [boron (B), boron]
most effective: effectiveness against P. viticola (P. viticola) | effectiveness against Pm. Alephilum (Pm. Alephilum) | effectiveness against D. seriata (D. seriata) | effectiveness against Pa. chlamydospora (Pa. chlamydospora) | effectiveness against E. lata (E. lata)

[Zn] [zinc (Zn), zinc]
most effective: effectiveness against P. viticola (P. viticola) | effectiveness against Pm. Alephilum (Pm. Alephilum) | effectiveness against D. seriata (D. seriata) | effectiveness against Pa. chlamydospora (Pa. chlamydospora) | effectiveness against E. lata (E. lata)
